# Results reported in patent US9346802B2, “CARM1 inhibitors and uses thereof” (Epizyme, Inc., priority 2013, dated 2016).
# Target: T1, Human CARM1 (PRMT4) (Homo sapiens, UniProt Q86X55)
# T1 construct: Flag-CARM1-His was eluted with 200 ug/ml FLAG peptide in buffer A; made in house; host or cells: HEK 293F cells infected with recombinant baculovirus (pFastBacMam)
# T1 sequence (Q86X55 1-585 isoform Q86X55-1): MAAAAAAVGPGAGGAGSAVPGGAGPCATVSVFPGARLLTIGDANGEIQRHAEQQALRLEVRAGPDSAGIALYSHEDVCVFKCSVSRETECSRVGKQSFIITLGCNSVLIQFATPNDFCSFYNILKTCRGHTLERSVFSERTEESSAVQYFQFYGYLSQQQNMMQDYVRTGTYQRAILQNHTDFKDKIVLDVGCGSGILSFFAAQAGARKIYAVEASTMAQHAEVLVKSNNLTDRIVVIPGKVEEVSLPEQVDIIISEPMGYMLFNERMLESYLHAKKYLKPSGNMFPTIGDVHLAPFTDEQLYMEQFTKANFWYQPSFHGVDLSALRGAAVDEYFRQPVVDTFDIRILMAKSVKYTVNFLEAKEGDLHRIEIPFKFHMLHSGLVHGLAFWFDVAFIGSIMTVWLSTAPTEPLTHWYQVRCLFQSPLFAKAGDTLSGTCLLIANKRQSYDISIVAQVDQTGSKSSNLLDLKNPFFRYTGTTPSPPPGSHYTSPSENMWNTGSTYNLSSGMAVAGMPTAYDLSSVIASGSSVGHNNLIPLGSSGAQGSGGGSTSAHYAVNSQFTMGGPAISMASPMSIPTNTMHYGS
# Test: CARM1 enzyme assay on peptide substrate (3H-SAM Flashplate)
# Assay type: biochemical
# Conditions: CARM1 0.25 nM, 3H-SAM 30 nM, peptide 250 nM, 30 min preincubation; read-out: Biochem IC50
# From the text: Peptide representative of human histone H3 residues 16-30 was synthesized with an N-terminal linker-affinity tag motif and a C-terminal amide cap by 21st Century Biochemicals. The peptide was purified by high-performance liquid chromatography (HPLC) to greater than 95% purity and confirmed by liquid chromatography mass spectrometry (LC-MS). The sequence was Biot-Ahx-[…]-amide and contained a monomethylated arginine at position 26 (SEQ ID NO.:1).
# Human CARM1 (PRMT4) (NM_199141.1) transcript clone was amplified from an HEK 293 cDNA library, incorporating a flanking 5′ sequence encoding a FLAG tag ([…]) (SEQ ID NO.:2) fused directly to Ala 2 of CARM1 and 3′ sequence encoding a hexa His sequence ([…]) (SEQ ID NO.:3) fused directly to Ser 608. The gene sequence encoding isoform1 containing a deletion of amino acids 539-561 was amplified subsequently and subcloned into pFastBacMam (Viva Biotech).
# Recombinant baculovirus were generated according to Bac-to-Bac kit instructions (Life Technologies). Protein over-expression was accomplished by infecting exponentially growing HEK 293F cell culture at 1.3×10^6 cell/ml with virus (MOI=10) in the presence of 8 mM sodium butyrate. Infections were carried out at 37° C. for 48 hours, harvested by centrifugation, and stored at −80° C. for purification.
# Expressed full-length human Flag- and His-tagged CARM1 protein was purified from cell paste by anti-flag M2 affinity chromatography with resin equilibrated with buffer containing 20 mM Tris, 150 mM NaCl, 5% glycerol, pH 7.8. Column was washed with 500 mM NaCl in buffer A and Flag-CARM1-His was eluted with 200 ug/ml FLAG peptide in buffer A. Pooled fractions were dialyzed in 20 mM Tris, 150 mM NaCl, 5% glycerol and 1 mM DTT, pH 7.8. The purity of recovered protein was 94.
# The assays were all performed in a buffer consisting of 20 mM Bicine (pH=7.6), 1 mM TCEP, 0.005% BSG, and 0.002% Tween 20, prepared on the day of use. Compounds in 100% DMSO (1 ul) were spotted into a polypropylene 384-well V-bottom plates (Greiner) using a Platemate Plus outfitted with a 384-channel head (Thermo Scientific). DMSO (1 ul) was added to Columns 11, 12, 23, 24, rows A-H for the maximum signal control and 1 ul of SAH, a known product and inhibitor of CARM1, was added to columns 11, 12, 23, 24, rows I-P for the minimum signal control. A cocktail (40 ul) containing the CARM1 enzyme was added by Multidrop Combi (Thermo-Fisher). The compounds were allowed to incubate with CARM1 for 30 min at room temperature, then a cocktail (10 ul) containing ^3H-SAM and peptide was added to initiate the reaction (final volume=51 ul). The final concentrations of the components were as follows: CARM1 was 0.25 nM, ^3H-SAM was 30 nM, peptide was 250 nM, SAH in the minimum signal control wells was 1 mM, and the DMSO concentration was 2%. The assays were stopped by the addition of non-radiolabeled SAM (10 ul) to a final concentration of 300 uM, which dilutes the ^3H-SAM to a level where its incorporation into the peptide substrate is no longer detectable. 50 ul of the reaction in the 384-well polypropylene plate was then transferred to a 384-well Flashplate and the biotinylated peptides were allowed to bind to the streptavidin surface for at least 1 hour before being washed once with 0.1% Tween20 in a Biotek ELx405 plate washer. The plates were then read in a PerkinElmer TopCount plate reader to measure the quantity of ^3H-labeled peptide bound to the Flashplate surface, measured as disintegrations per minute (dpm) or alternatively, referred to as counts per minute (cpm).
# [formula] where dpm=disintegrations per minute, cmpd=signal in assay well, and min and max are the respective minimum and maximum signal controls.
# [formula] where top and bottom are the normally allowed to float, but may be fixed at 100 or 0 respectively in a 3-parameter fit. The Hill Coefficient normally allowed to float but may also be fixed at 1 in a 3-parameter fit. […]
row,Compound,IC50
1,CNCC(O)COc1cccc(-c2nc(-c3ccnc(C)c3)cc(N(C)C3CCOCC3)n2)c1 (centres unmarked) [Compound 40-1],100 to 1000 nM
2,CNCC(O)COc1cccc(-c2cc(NC3CCOCC3)nc(N(C)C)n2)c1 (centres unmarked) [Compound 3-2],100 to 1000 nM
3,C#Cc1cc(NC2CCOCC2)nc(-c2cccc(OCC(O)CNC)c2)n1 (centres unmarked) [Compound 5-1],3000 to 10000 nM
4,CNCC(O)COc1cccc(-c2cc(N(C)C3CCOCC3)nc(C)n2)c1 (centres unmarked) [Compound 1-2],100 to 1000 nM
5,CNCC(O)COc1cc(Cl)cc(-c2nc(C3CC3)cc(N(C)C3CCOCC3)n2)c1 (centres unmarked) [Compound 28-1],100 to 1000 nM
6,CNCC(O)COc1cc(Cl)cc(-c2nc(-c3ccc4c(c3)OCCO4)cc(N(CCOC)CCOC)n2)c1 (centres unmarked) [Compound 74-1],100 to 1000 nM
7,CNCC(O)COc1cccc(-c2cc(NC3CCOCC3)nc(N3CCOCC3)n2)c1 (centres unmarked) [Compound 12-2],100 to 1000 nM
8,CNCC(O)COc1cccc(-c2nc(NC3CCOCC3)cc(N3CCOCC3)n2)c1 (centres unmarked) [Compound 27-1],100 to 1000 nM
9,CNCC(O)COc1cccc(-c2nc(C(C)C)c(C)c(N(C)C3CCOCC3)n2)c1 (centres unmarked) [Compound 21-1],100 to 1000 nM
10,CNCC(O)COc1cccc(-c2nc(C)cc(N(C)C3CCOCC3)n2)c1 (centres unmarked) [Compound 6-1],100 to 1000 nM
11,CNCC(O)COc1cccc(-c2nc(-c3cc4ccccc4o3)cc(N(C)CCC#N)n2)c1 (centres unmarked) [Compound 35-1],100 to 1000 nM
12,CNCC(O)COc1cccc(-c2nc(NCCOC)cc(-c3cccc4ncccc34)n2)c1 (centres unmarked) [Compound 39-1],100 to 1000 nM
13,CNCC(O)COc1cccc(-c2nc(NC(C)C)cc(NC3CCOCC3)n2)c1 (centres unmarked) [Compound 16-1],100 to 1000 nM
14,CNCC(O)COc1cccc(-c2nc(NCCOC)cc(-c3cccc(C#N)c3)n2)c1 (centres unmarked) [Compound 23-1],100 to 1000 nM
15,CNCC(O)COc1cc(Cl)cc(-c2nc(-c3ccncc3)c(C)c(N(C)C3CCOCC3)n2)c1 (centres unmarked) [Compound 58-1],100 to 1000 nM
16,CNCC(O)COc1cccc(-c2nc(-c3ccc(C(F)(F)F)nc3)cc(N(C)CCC#N)n2)c1 (centres unmarked) [Compound 54-1],100 to 1000 nM
17,CNCC(O)COc1cc(Cl)cc(-c2nc(-c3cc(C)nc(C)c3)c(C)c(N(C)C3CCOCC3)n2)c1 (centres unmarked) [Compound 63-1],100 to 1000 nM
18,CNCC(O)COc1cccc(-c2nc(-c3ccc(OC)c(OC)c3)cc(N(C)C3CCOCC3)n2)c1 (centres unmarked) [Compound 61-1],1000 to 3000 nM
19,CNCC(O)COc1cccc(-c2cc(NC3CCOCC3)nc(NC(C)C)n2)c1 (centres unmarked) [Compound 9-2],100 to 1000 nM
20,CNCC(O)COc1cccc(-c2nc(NCCCN3CCCC3=O)cc(-c3ccc(OC)c(OC)c3)n2)c1 (centres unmarked) [Compound 68-1],100 to 1000 nM
21,CNCC(O)COc1cccc(-c2nc(NCCCN3CCCC3=O)cc(-c3ccc(S(C)(=O)=O)cc3)n2)c1 (centres unmarked) [Compound 73-1],100 to 1000 nM

row,Compound,IC50
1,C#Cc1cc(N(C)C2CCOCC2)nc(-c2cccc(OCC(O)CNC)c2)n1 (centres unmarked) [Compound 7-1],100 to 1000 nM
2,CNCC(O)COc1cc(Cl)cc(-c2nc(-c3ccnc(OC)c3)cc(N(CCOC)CCOC)n2)c1 (centres unmarked) [Compound 65-1],100 to 1000 nM
3,C=C(Cl)c1cc(NC2CCOCC2)nc(-c2cccc(OCC(O)CNC)c2)n1 (centres unmarked) [Compound 17-1],1000 to 3000 nM
4,CNCC(O)COc1cc(Cl)cc(-c2nc(-c3ccc(OC)c(OC)c3)cc(N(CCOC)CCOC)n2)c1 (centres unmarked) [Compound 75-1],100 to 1000 nM
5,CNCC(O)COc1cccc(-c2cc(N[C@H]3CCOC3)nc(C3CCOCC3)n2)c1 (some centres unmarked) [Compound 10-2],100 to 1000 nM
6,CNCC(O)COc1cc(Cl)cc(-c2nc(N[C@@H]3CCOC3)c(C)c(C3=CCOCC3)n2)c1 (some centres unmarked) [Compound 47-1],100 to 1000 nM
7,CNCC(O)COc1cccc(-c2nc(-c3ccc(S(C)(=O)=O)cc3)cc(N(CCOC)CCOC)n2)c1 (centres unmarked) [Compound 72-1],100 to 1000 nM
8,CNCC(O)COc1cccc(-c2cc(NC3CCOCC3)nc(-c3ccncc3)n2)c1 (centres unmarked) [Compound 11-2],100 to 1000 nM
9,CNCC(O)COc1cccc(-c2nc(-c3cncnc3)cc(N(CCOC)CCOC)n2)c1 (centres unmarked) [Compound 43-1],100 to 1000 nM
10,CNCC(O)COc1cccc(-c2nc(NC3CCOCC3)cc(-c3cccc(C#N)c3)n2)c1 (centres unmarked) [Compound 38-1],100 to 1000 nM
11,CNCC(O)COc1cc(Cl)cc(-c2nc(-c3cn4ccccc4n3)c(C)c(N(C)C3CCOCC3)n2)c1 (centres unmarked) [Compound 69-1],100 to 1000 nM
12,CNCC(O)COc1cccc(-c2nc(-c3ccnc(OC)c3)cc(N(C)CCC#N)n2)c1 (centres unmarked) [Compound 30-1],100 to 1000 nM
13,CNCC(O)COc1cccc(-c2nc(NCCCN3CCCC3=O)cc(-c3ccc4c(c3)OCCO4)n2)c1 (centres unmarked) [Compound 66-1],100 to 1000 nM
14,CNCC(O)COc1cc(Cl)cc(-c2nc(C(C)C)cc(N(C)C3CCOCC3)n2)c1 (centres unmarked) [Compound 31-1],100 to 1000 nM
15,CNCC(O)COc1cccc(-c2nc(N3CCOCC3)nc(N[C@H]3CCOC3)c2C)c1 (some centres unmarked) [Compound 13-2],100 to 1000 nM
16,CNCC(O)COc1cccc(-c2nc(NC3CCOCC3)cc(-c3cnn(CC(C)C)c3)n2)c1 (centres unmarked) [Compound 51-1],100 to 1000 nM
17,CNCC(O)COc1cccc(-c2nc(NC3CCOCC3)cc(NC3CC3)n2)c1 (centres unmarked) [Compound 12-1],100 to 1000 nM
18,CNCC(O)COc1cccc(-c2nc(-c3ccc(C(F)(F)F)nc3)cc(N(CCOC)CCOC)n2)c1 (centres unmarked) [Compound 67-1],100 to 1000 nM
19,CNCC(O)COc1cccc(-c2nc(-c3cccc4ncccc34)cc(N(C)CCC#N)n2)c1 (centres unmarked) [Compound 44-1],100 to 1000 nM
20,CNCC(O)COc1cccc(-c2nc(-c3c(C)noc3C)cc(N(CCOC)CCOC)n2)c1 (centres unmarked) [Compound 52-1],100 to 1000 nM
